# Data reported in US9757477B2, “Imaging brown adipose tissue with curcumin derivatives” (The General Hospital Corporation, priority 2013, dated 2017).
# Experiments:
# [1] = Excitation and emission wavelengths of BAT imaging agents; assay type: physicochemical
# Experimental: In some embodiments, the methods include irradiating the mammal with light of the appropriate wavelength to excite the BAT imaging agent, and detecting emissions therefrom.
# Fluorescent dyes were purchased from Exciton Inc. (Dayton, Ohio) and Invitrogen. The reagents used for the synthesis were purchased from Aldrich and used without further purification. Column chromatography was performed on silica gel (SiliCycle Inc., 60 Å, […]) slurry packed into glass columns. 1H, 13C NMR spectra were recorded at 500 MHz and 125 MHz respectively, and reported in ppm downfield from tetramethylsilane. Fluorescence studies were carried out using a F-4500 Fluorescence Spectrophotometer (Hitachi). Mass spectra were obtained at Harvard University, Department of Chemistry Instrumentation Facility. Microscopic images were acquired with Nikon Eclipse 50i microscope. In vivo NIR imaging was performed using the IVIS® Spectrum animal imaging system (Caliper LifeSciences, Perkin Elmer, Hopkinton, Mass.), and data analysis was conducted using LivingImage® 4.2.1 software.
# interscapular BAT [2] = assay: Re-testing of hits with stepwise dissection and NIR imaging; assay type: in vivo, mice
# Experimental: Like protein/cell-based screening, hit re-testing experiments were conducted to validate the reliability of this approach. CRANAD-2, -3, LDS 722 and Rhodamine 640 were subjected to re-testing by repeating the above imaging procedure. Images were acquired one hour after probe injection.
# Next, stepwise dissection and imaging were performed to track the source of the fluorescence contrast at the interscapular site. Skin and the thin WAT layer that covers BAT were first removed, and then BAT was dissected, and NIR images were captured at each step. […] The signal contribution from BAT (R(BAT)) was roughly estimated using the ratio of fluorescence signals acquired after (F(BAT)) and before (F(intact)) the first step dissection of skin and WAT.
# brown adipose cells = assay: Ex vivo histology of dissected BAT slices; design: species or system mice; conditions: fluorescence microscopy
# Experimental: (§1) Next the time course of CRANAD-2 and CRANAD-3 accumulation in BAT area was investigated. […] Similarly, the signal of CRANAD-3 reached the uptake peak around one hour, and then gradually washed out (FIG. 8c-d). Accumulation of CRANAD-2 and -3 in BAT was further confirmed with ex vivo histology of the dissected BAT slices, performed as follows. The dissected BAT was fixed with 4% formalin at 4° C. overnight, and then embedded into OCT. BAT tissue was cut into 7 micron thickness slices, washed with PBS buffer, and co-stained with DAPI (Vectra Shield, Vector Lab, Burlingame, Calif.). Images were acquired with fast exposure to capture the dye signal in the oil droplets. To outline cell membrane cell autofluorescence was captured with long exposure after image of the dye signal from oil droplets was already acquired. To further validate the capacity of CRANAD-29 for BAT labeling, ex vivo histological microscopic imaging with CRANAD-29 was conducted. […] Gold standard H&E staining also provided similar images (FIG. 10a). […] The injection dose of CRANAD-29 was optimized, and the fluorescence signal reached its plateau at 0.4 mg/kg (FIG. 11). In the following studies, 0.1 mg/kg dose was used.
# interscapular BAT [3] = assay: Time course and dose optimization of probe signal in BAT area after i.v. injection; assay type: in vivo, mice
# Experimental: as §1
# [4] = tested on: differentiated 3T3-L1 cells; assay: Probe uptake in differentiated 3T3-L1 cells (IVIS and two-photon imaging, competition); assay type: cell-based; conditions: for uptake with triglyceride competition: triglyceride added with probe, two-photon microscopy and IVIS
# Experimental: (§2) To investigate the facilitated diffusion of CRANAD-2, the time courses of CRANAD-2 uptake in 3T3-L1 cells were compared before and after differentiation. Two-photon imaging for 3T3-L1 cells was performed as follows. Fibroblast 3T3-L1 cells were differentiated following the protocol provided by Zenbio, Inc. (protocol No. ZBM0009.02). Ten microliters of CRANAD-2 (250 μM in DMSO) was added to the differentiated cells (1.0 ml). Cells were imaged after 10 min of incubation. A 940 nm laser was first used to capture an image for CRANAD-2 in 570-620 nm channel (Prairie Two-photon microscope, Middleton, Wis.). Next, the laser was tuned to 750 nm to capture autofluorescence of the cells to outline cell morphology.
# For triglyceride competition, stock solutions of CRANAD-2 (250 μM) and triglyceride (5 mM) in DMSO were prepared. Before imaging, 10 μl of the stock solution was added to the cells.
# (§3) IVIS imaging of 3T3-L1 cells with CRANAD-2 was performed as follows. To a 6-well plate seeded with preadipocytes or differentiated adipocytes, a 10 μL solution of CRANAD-2 (250 μM in DMSO) was added. The plate was subjected to imaging using IVIS imaging system with Ex=605 nm, Em=660 nm before and after addition of CRANAD-2. For triglyceride competition, the same protocol for two-photon imaging was used. The images were acquired at 20 min after addition of CRANAD-2. Studies were performed in triplicate.
# (§4) The uptake of CRANAD-29 in 3T3-L1 cells before and after differentiation was compared. IVIS imaging of 3T3-L1 cells with CRANAD-29 was performed as follows. To a 6-well plate seeded with preadipocytes or differentiated adipocytes, a 10 μL solution of CRANAD-29 (250 μM in DMSO) was added. The plate was subjected to imaging using IVIS imaging system with Ex=640 nm, Em=700 nm before and after addition of CRANAD-29. For triglyceride competition and Hexarelin inhibition, the similar protocol for CRANAD-2 imaging was used. The final concentration of hexarelin was 12.5 μM, and the images were acquired at 3 hours after addition of CRANAD-29 and triglyceride/Hexarelin. Studies were performed in triplicate.
# [5] = tested on: undifferentiated 3T3-L1 cells; assay: Probe uptake in undifferentiated 3T3-L1 cells (IVIS imaging); assay type: cell-based
# Experimental: as §2, §3, §4
SMILES,Emission λ [1] [nm],Excitation λ [1] [nm],"R(BAT), signal contribution from BAT, F(BAT)/F(intact) (interscapular BAT [2]; fluorescence after vs before dissection of skin and WAT, roughly estimated)",contrast among the re-tested dyes (interscapular BAT [2]; images one hour after probe injection),fluorescence signal from BAT (before vs after BAT removal) (interscapular BAT [2]; stepwise dissection),selectivity for BAT (over WAT) (interscapular BAT [2]; stepwise dissection),labeling in ex vivo histology of BAT slices (brown adipose cells),cleared by (interscapular BAT [3]; i.v. injection) [min],signal detectable until (interscapular BAT [3]; i.v. injection),time of uptake peak in BAT area after injection (interscapular BAT [3]; i.v. injection) [min],time to uptake plateau ([4]; differentiated 3T3-L1 cells),"uptake within 1 minute, of the maximal ([4]; differentiated 3T3-L1 cells) [%]",uptake with triglyceride competition [4],time to maximal uptake [5] [min],F(BAT)/F(intact) ratio compared with CRANAD-2 and -3 (interscapular BAT [2]; stepwise dissection),injection dose at which fluorescence signal reached its plateau (interscapular BAT [3]; dose optimization) [mg/kg],"time at which uptake reached plateau after probe injection (interscapular BAT [3]; mouse, in vivo, iv)",reduction of uptake in glutaraldehyde-fixed cells ([4]; differentiated 3T3-L1 cells fixed with glutaraldehyde) [%],"uptake with Hexarelin (CD36 specific ligand) ([4]; hexarelin 12.5 μM, images at 3 hours)",uptake in undifferentiated cells over the time course [5]
CN(C)c1ccc(/C=C/C2=CC(=C/C=C3C=CC(=[N+](C)C)C=C3)/O[B-](F)(F)O2)cc1 [CRANAD-2],680,605,about 0.26,highest contrast,able to label BAT,low,labeled oil droplets in brown adipose cells,≤ 720,at least 180 min,120,15 min,62,significant decrease in uptake,≤ 1,–,–,–,–,–,–
F[B-]1(F)OC(/C=C/c2cc3c4c(c2)CCCN4CCC3)=CC(/C=C/c2cc3c4c(c2)CCCN4CCC3)=[O+]1 [CRANAD-29],700,640,–,–,–,excellent selectivity,capable of labeling BAT cells,–,–,–,around 90 minute,–,significantly reduced by triglyceride,–,much higher,0.4,around 2 h,70,significantly inhibited by Hexarelin,no apparent uptake
